The results in this text go back to patent US10233193B2, “Fused tricyclic heterocyclic compounds useful for treating HIV infection” (MERCK SHARP & DOHME CORP., priority 2015, dated 2019).

The assay relates to HIV-1 (NL4-3 strain). Briefly: Assay for inhibition of HIV replication (MT4-gag-GFP reporter cell line, wild type cell assay, Viking). The assay is classed as cell-based. The settings on record: IP or IC50 from 4-parameter dose response curve. How it is done: This assay is a kinetic assay that employs a reporter cell line (MT4-gag-GFP) to quantify the number of new cells infected in each round of replication.
MT4-GFP cells (250,000 cells/ml) were bulk-infected with HIV-1 (NL4-3 strain) at low multiplicity of infection (MOI) in RPMI+10% FBS for 24 hours. Cells were then washed once in RPMI+10% FBS and resuspended in RPMI+0% or 10% or 100% normal human serum (NHS). Test compounds were serial-diluted in DMSO on ECHO. The infected MT4-GFP cells were added to a 384-well poly-D-lysine coated black plate with clear bottom in which the diluted test compounds were placed. The cells were seeded at 8,000 cells per well and the final DMSO concentration was 0.4%. The infected cells (Green GFP cells) were quantified at both 24 and 48 hours post incubation using Acumen eX3. Viral reproductive ratio (R0) was determined using the number of infected cells at 48 hours divided by the number of infected cells at 24 hours. Percent viral growth inhibition was calculated by [1−(R−Rtripledrug)/(RDMSO−Rtripledrug)]*100. Compound potency IP or IC50 was determined by a 4-parameter dose response curve analysis.
Illustrative compounds of the present invention were tested using this assay protocol and results are presented below in Table A.

Like-named read-outs stand apart in the source and are kept apart here.

Consider `CN1CC[C@@H]2C1C(C)(C)C(=O)c1c(O)c(=O)c(C(=O)NCc3ccc(F)cc3F)cn12` (some centres unmarked) [Compound 9], for which the IC50 was 174 nM (infected MT4-GFP cells in 100% normal human serum, read-out: WILD TYPE CELL ASSAY Viking IP (100% NHS)) and 5.3 nM (infected MT4-GFP cells in RPMI + 0% normal human serum, read-out: WILD TYPE CELL ASSAY Viking IP (0% NHS)).
